Experimental findings from patent publication US8022091B2, “Triazole derivative” (Taisho Pharmaceutical Co., Ltd., priority 2006, dated 2011) are described below.

One series concerns the target T1, human Edg-1 (S1P1) (Homo sapiens, UniProt P21453).
T1 construct: expressed in transfected cells; host or cells: HEK-293
Put plainly: S1P1 binding assay: inhibition of [33P]-S1P binding to membrane fraction of HEK-293 cells transferred with the human Edg-1 (S1P1) gene. As to conditions: for pIC50: [33P]-S1P 0.1 nM, human Edg-1 (S1P1) HEK-293 membrane fraction, 1 h at 30° C., read-out: IC50 (concentration at which binding in the absence of the test compound was inhibited by 50%). Summed up: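 With 0.1 nM [33P]-S1P and compound (10^−5M single point, or a concentration range for IC50) in 0.1% DMSO, membrane fractions from human Edg-1-expressing HEK-293 cells were treated for one hour at 30° C in 20 mM Tris-HCl pH 7.4 with NaF, deoxypyridoxine and BSA. Bound label was measured after filtration, with untransfected-cell background subtracted.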

Where [1] appears, read: test compound at 10 μM, inhibition of [33P]-S1P binding to the membrane fraction of HEK-293 cells expressing human Edg-1 (S1P1).
Setting [2] is: test compound 10 μM, inhibition of [33P]-S1P binding, membrane fraction.

pIC50: −log10 of the molar value.

T1 sequence (P21453 whole entry): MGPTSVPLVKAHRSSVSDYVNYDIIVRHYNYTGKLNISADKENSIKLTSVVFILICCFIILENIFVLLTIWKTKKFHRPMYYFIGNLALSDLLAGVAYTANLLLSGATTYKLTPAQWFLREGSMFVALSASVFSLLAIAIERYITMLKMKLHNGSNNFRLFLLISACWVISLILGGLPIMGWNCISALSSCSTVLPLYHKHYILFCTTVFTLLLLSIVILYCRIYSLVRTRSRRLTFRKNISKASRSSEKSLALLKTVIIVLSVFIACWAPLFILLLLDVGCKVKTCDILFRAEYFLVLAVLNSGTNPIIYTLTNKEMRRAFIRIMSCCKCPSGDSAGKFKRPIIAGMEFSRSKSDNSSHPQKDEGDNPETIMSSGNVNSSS

Broadly, the inhibition is the change of the read-out against control, counted positive when it falls. Usually melting point stands for the temperature of the solid-liquid transition. Regarding `CCn1c(Oc2ccc(F)cc2)nnc1[C@@H](C)NS(=O)(=O)c1ccc(F)c(Cl)c1` [Compound 103], the melting point was in the range of 146.5 to 147.5 °C. In addition, the inhibition at 10 µM at human Edg-1 (S1P1) (setting [1]) was 91.2%.
Compound `CCn1c(Oc2ccc(OCCN3CCOCC3)cc2)nnc1[C@@H](C)NS(=O)(=O)c1ccc(Cl)c(Cl)c1` [Compound 36] yielded a melting point of 125 to 130 °C. Besides, the pIC50 at human Edg-1 (S1P1) is 7.76. Besides, on human Edg-1 (S1P1) (setting [1]), the inhibition at 10 µM worked out at 102%.
For `CCn1c(Oc2ccc3[nH]ccc3c2)nnc1[C@@H](C)NS(=O)(=O)c1ccc(Cl)c(Cl)c1` [Compound 63], the melting point was 216.5 to 217.5 °C. The inhibition at 10 µM on human Edg-1 (S1P1) (setting [1]) turned out to be 105%.
The compound `CCn1c(Oc2ccc(OC)cc2)nnc1[C@@H](C)NS(=O)(=O)c1ccc(Cl)c(Cl)c1` [Compound 11] yielded a melting point of 155 to 160 °C. Besides, the pIC50 on human Edg-1 (S1P1) is 8.05. At human Edg-1 (S1P1) (setting [1]), the inhibition at 10 µM is 98.5%.
For `CCCCOc1ccc(Oc2nnc([C@@H](C)NS(=O)(=O)c3ccc(Cl)c(Cl)c3)n2CC)cc1` [Compound 21] the same measures were 146.5 to 149.5 °C, not below 7.46 and 96.7%.
Regarding `CCn1c(Oc2cccc(N3CCN(C)CC3)c2)nnc1[C@@H](C)NS(=O)(=O)c1ccc2c(I)cccc2c1` [Compound 690], the melting point was in the range of 198 to 200 °C. In addition, on human Edg-1 (S1P1), the pIC50 was not below 8.00. The inhibition at 10 µM at human Edg-1 (S1P1) (setting [2]) stood at 102%.
`CCn1c(Oc2ccc3cccnc3c2)nnc1[C@@H](C)NS(=O)(=O)c1ccc(Cl)c(Cl)c1` [Compound 72]: the melting point lay within 198 to 200.5 °C. Moreover, at human Edg-1 (S1P1) (setting [1]), the inhibition at 10 µM worked out at 99%.
For `CCn1c(Oc2cccc(-n3ccnc3)c2)nnc1[C@@H](C)NS(=O)(=O)c1ccc(Cl)c(Cl)c1` [Compound 85] the same measures were 133 to 134 °C and 100%.
In turn, `CCn1c(Oc2ccc(F)cc2)nnc1[C@@H](C)NS(=O)(=O)c1ccc2c(Cl)cccc2c1` [Compound 137] displayed a melting point of 173.5 to 177 °C. Moreover, the pIC50 on human Edg-1 (S1P1) is not below 8.00. The inhibition at 10 µM at human Edg-1 (S1P1) (setting [1]) is 102%.
For `CCC(NS(=O)(=O)c1ccc(Cl)c(Cl)c1)c1nnc(Oc2ccc(C)cc2)n1CC` (stereo not drawn) [Compound 149] the same measures were 212 to 214.5 °C, 8.11 and 101%.
`CCn1c(Oc2ccc(C)nc2)nnc1[C@@H](C)NS(=O)(=O)c1ccc(Cl)c(Cl)c1` [Compound 51] gave a melting point of 148.5 to 150.5 °C. On human Edg-1 (S1P1) (setting [1]), the inhibition at 10 µM was determined as 99.9%.
The compound `CCn1c(Oc2ccc3cc[nH]c3c2)nnc1[C@@H](C)NS(=O)(=O)c1ccc2ccccc2c1` [Compound 130] came in with a melting point of 107 to 114 °C. Also, the pIC50 at human Edg-1 (S1P1) is 8.54. The inhibition at 10 µM on human Edg-1 (S1P1) (setting [1]) was 98.9%.
Take `CCn1c(Oc2cccc(N3CCNCC3)c2)nnc1[C@@H](C)NS(=O)(=O)c1ccc2c(Cl)cccc2c1` [Compound 688]: the melting point is 192 to 193 °C. Further, the pIC50 at human Edg-1 (S1P1) was 8.82. Besides, the inhibition at 10 µM at human Edg-1 (S1P1) (setting [2]) is 100%.
Consider `CCn1c(Oc2ccc(Cl)cc2)nnc1[C@@H](C)NS(=O)(=O)c1ccc(Cl)c(Cl)c1` [Compound 8], for which the melting point lay in the range of 179 to 189.5 °C. Besides, the pIC50 at human Edg-1 (S1P1) was 7.73. On human Edg-1 (S1P1) (setting [1]), the inhibition at 10 µM worked out at 100%.
The compound `CCn1c(Sc2ccccc2)nnc1[C@@H](Cc1ccccc1)NS(=O)(=O)c1ccc(Cl)c(Cl)c1` [Compound 2] had a melting point of 134 to 138 °C. At human Edg-1 (S1P1) (setting [1]), the inhibition at 10 µM was found to be 103% and the “Binding assay (membrane) % inhibition (10 μM)” value turned out to be 97.8%.
`CCn1c(Oc2ccc(F)cc2)nnc1[C@@H](C)NS(=O)(=O)c1ccc(C(F)(F)F)cc1` [Compound 128] came in with a melting point of 182.5 to 183.5 °C. Also, the inhibition at 10 µM on human Edg-1 (S1P1) (setting [1]) came to 90.7%.
`CCn1c(Oc2cccc(C)c2)nnc1[C@@H](C)NS(=O)(=O)c1ccc(Cl)c(Cl)c1` [Compound 5] had a melting point of 160 to 161 °C. Also, the pIC50 on human Edg-1 (S1P1) was not below 7.46. Further, the inhibition at 10 µM on human Edg-1 (S1P1) (setting [1]) stood at 97.3%.
For `CCn1c(Oc2cccc(N3CCN(C)CC3)c2)nnc1[C@@H](C)NS(=O)(=O)c1cc2ccccc2s1` [Compound 144] the same measures were 187 to 188 °C, 8.10 and 99.4%.
For `CCn1c(Oc2ccccc2)nnc1[C@@H](C)NS(=O)(=O)c1ccc(Cl)c(Cl)c1` [Compound 7] the same measures were 159.5 to 161.5 °C, 7.45 and 99.4%.
Consider `CCn1c(Oc2ccc(F)c(N3CCN(C)CC3)c2)nnc1[C@@H](C)NS(=O)(=O)c1ccc(Cl)c(Cl)c1` [Compound 681], for which the melting point was 189 to 189.5 °C. In addition, at human Edg-1 (S1P1), the pIC50 is not below 8.00. The inhibition at 10 µM on human Edg-1 (S1P1) (setting [2]) amounted to 100%.
With `CCc1ccc(Oc2nnc([C@@H](C)NS(=O)(=O)c3ccc(Cl)c(Cl)c3)n2CC)cc1` [Compound 24], the melting point was 172.5 to 173 °C. In addition, the pIC50 on human Edg-1 (S1P1) is not below 8.00. Moreover, the inhibition at 10 µM on human Edg-1 (S1P1) (setting [1]) worked out at 101%.
For `CCn1c(Oc2cccc(N3CCN(C)CC3)c2)nnc1[C@@H](C)NS(=O)(=O)c1ccc(Br)c(C)c1` [Compound 111] the same measures were 204 to 205 °C, not below 8.00 and 109%.
Take `CCn1c(Oc2cccc(C)n2)nnc1[C@@H](C)NS(=O)(=O)c1ccc(Cl)c(Cl)c1` [Compound 71]: the melting point lay within 126 to 135 °C. Besides, the inhibition at 10 µM on human Edg-1 (S1P1) (setting [1]) is 99.3%.
The like results for `CCn1c(Oc2cc(OC)c(OC)c(OC)c2)nnc1[C@@H](C)NS(=O)(=O)c1ccc(Cl)c(Cl)c1` [Compound 17] were, in that order, 129.5 to 131.5 °C and 95.4%.
As for `CCn1c(Oc2ccccc2)nnc1[C@@H](Cc1ccccc1)NS(=O)(=O)c1ccc(Cl)c(Cl)c1` [Compound 1], the melting point was 182 to 184 °C. Moreover, at human Edg-1 (S1P1) (setting [1]), the inhibition at 10 µM was determined as 93.4% and the “Binding assay (membrane) % inhibition (10 μM)” value was 100.8%.
`CCn1c(Oc2ccccc2Cl)nnc1[C@@H](C)NS(=O)(=O)c1ccc(Cl)c(Cl)c1` [Compound 6] displayed a melting point of 180 to 190 °C. At human Edg-1 (S1P1) (setting [1]), the inhibition at 10 µM worked out at 98.2%.
For `CCn1c(Oc2cccc(O)c2)nnc1[C@@H](C)NS(=O)(=O)c1ccc(Cl)c(Cl)c1` [Compound 114, 3,4-Dichloro-N-[(R)-1-[4-ethyl-5-(3-hydroxyphenoxy)-4H-[1,2,4]triazol-3-yl]-ethyl]-benzenesulfonamide] the same measures were 185 to 186 °C and 94.5%.
The compound `CCn1c(Oc2ccc(N3CCOCC3)cc2)nnc1[C@@H](C)NS(=O)(=O)c1ccc(Cl)c(Cl)c1` [Compound 47] came in with a melting point of 191 to 192 °C. Also, the inhibition at 10 µM on human Edg-1 (S1P1) (setting [1]) is 102%.
`CCn1c(Oc2cccc(N3CCN(C)CC3)c2)nnc1C1(NS(=O)(=O)c2ccc(Cl)c(Cl)c2)CC1` [Compound 686] registered a melting point of 220.5 to 221 °C. Also, the inhibition at 10 µM on human Edg-1 (S1P1) (setting [2]) was found to be 92.7%.
As for `CCn1c(Oc2cccc(N3CCOCC3)c2)nnc1[C@@H](C)NS(=O)(=O)c1ccc(Cl)c(Cl)c1` [Compound 34], the melting point is 192.5 to 195.5 °C. Further, at human Edg-1 (S1P1), the pIC50 was 8.70. Moreover, on human Edg-1 (S1P1) (setting [1]), the inhibition at 10 µM is 106%.
For `CCn1c(Oc2ccc3ccccc3c2)nnc1[C@@H](C)NS(=O)(=O)c1ccc(Cl)c(Cl)c1` [Compound 42] the same measures were 176.5 to 179.5 °C, 7.66 and 102%.
The like results for `CCn1c(Oc2ccc(F)c(C)c2)nnc1[C@@H](C)NS(=O)(=O)c1ccc(Cl)c(Cl)c1` [Compound 37] were, in that order, 145 to 147 °C, not below 7.46 and 100%.
For `CCn1c(Oc2ccc(F)cc2)nnc1[C@@H](C)NS(=O)(=O)c1ccc(Cl)c(Cl)c1` [Compound 12, 3,4-Dichloro-N-{(R)-1-[4-ethyl-5-(4-fluorophenoxy)-4H-[1,2,4]-triazol-3-yl]ethyl}benzenesulfonamide] the same measures were 190 to 192 °C, 7.70 and 99.2%.
For the compound `CCn1c(Oc2ccc(N3CCCCC3)cc2)nnc1[C@@H](C)NS(=O)(=O)c1ccc(Cl)c(Cl)c1` [Compound 48], the melting point is 195.5 to 196.5 °C. Moreover, the inhibition at 10 µM on human Edg-1 (S1P1) (setting [1]) worked out at 96.7%.
For the compound `C[C@@H](NS(=O)(=O)c1ccc(Cl)c(Cl)c1)c1nnc(Oc2ccc(F)cc2)n1C1CC1` [Compound 124], the melting point was in the range of 178.5 to 180 °C. In addition, the inhibition at 10 µM on human Edg-1 (S1P1) (setting [1]) is 97.4%.
For `CCn1c(Oc2ccc(F)c(N3CCN(C)CC3)c2)nnc1[C@@H](C)NS(=O)(=O)c1ccc2c(Cl)cccc2c1` [Compound 680], the melting point lay in the range of 169.5 to 170.5 °C. Further, the pIC50 on human Edg-1 (S1P1) is 8.85. For the same compound, the inhibition at 10 µM on human Edg-1 (S1P1) (setting [2]) was 100%.
`CCn1c(Nc2ccc(F)cc2)nnc1[C@@H](C)NS(=O)(=O)c1ccc(Cl)c(Cl)c1` [Compound 116] yielded a melting point of 192 to 195 °C. Moreover, the inhibition at 10 µM on human Edg-1 (S1P1) (setting [1]) turned out to be 83.1%.
In turn, `CCn1c(Oc2ccc(C)cc2)nnc1[C@@H](Cc1ccccc1)NS(=O)(=O)c1ccc(Cl)c(Cl)c1` [Compound 10] registered a melting point of 182.5 to 184.5 °C. Also, on human Edg-1 (S1P1), the pIC50 was 7.76. Moreover, the inhibition at 10 µM on human Edg-1 (S1P1) (setting [1]) stood at 99.8%.
Turning to `CCn1c(Oc2cccc(N(C)CCN(C)C)c2)nnc1[C@@H](C)NS(=O)(=O)c1ccc(Cl)c(Cl)c1` [Compound 105], the melting point was in the range of 121 to 123 °C. Moreover, the pIC50 on human Edg-1 (S1P1) was 8.54. In addition, the inhibition at 10 µM at human Edg-1 (S1P1) (setting [1]) is 104%.
